Assay: Volatile materials test in ventilating oven
Assay type: physicochemical
Conditions: after 2 hours at 141° F. (=60.5° C.) in a ventilating oven
Description: The moisture content of raw material Celite 500 is 3.7 weight percent. So, the weight of raw material Celite 500 is close to the dry weight of Celite 500. According to the product specifications of Supragil MNS/90, Soprophor S/40-P, and Supragil WP, the moisture contents of these components are no higher than 2 weight percent. Also, samples of chlorpyrifos technical were tested for volatile materials in a ventilating oven. The weight loss after 2 hours at 141° F. (=60.5° C.) was only 0.6 weight percent. […] Therefore, the dry spreadable granular product as manufactured above contains approximately 2.0 weight percent chlorpyrifos.

SMILES: CCOP(=S)(OCC)Oc1nc(Cl)c(Cl)cc1Cl [chlorpyrifos technical, Chlorpyrifos]
- weight loss (volatile materials): 0.6 weight percent

Source: patent publication US6375969B1, “Broadcast carriers for pesticides and their use” (priority 1996, dated 2002)
